In the assay the target is T1, RORc ligand binding domain (Homo sapiens, UniProt P51449).
T1 sequence (P51449 269-508 limits assumed): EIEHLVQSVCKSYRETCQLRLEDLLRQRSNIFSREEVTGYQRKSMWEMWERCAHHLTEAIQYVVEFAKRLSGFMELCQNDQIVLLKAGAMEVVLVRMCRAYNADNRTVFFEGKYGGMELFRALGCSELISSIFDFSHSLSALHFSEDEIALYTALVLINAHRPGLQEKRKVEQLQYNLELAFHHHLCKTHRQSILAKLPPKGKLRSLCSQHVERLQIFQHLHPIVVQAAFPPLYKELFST
Description: In Vitro RORc Ligand Binding Assay. Particulars: RORc IC50, radioligand 25-[3H]hydroxycholesterol 6 nM; 0.6 ug/mL RORc receptor; 3 h at 25° C.

Usually IC50 stands for the point on the concentration scale where inhibition reaches its midpoint. `CC1(C)[C@H]2CC[C@]1(c1nccc(-n3ccc(CO)n3)n1)c1nnc(-c3c(F)cccc3F)cc12` [Example 284, (1-(2-((5R,8R)-3-(2,6-difluorophenyl)-9,9-dimethyl-5,6,7,8-tetrahydro-5,8-methanocinnolin-8-yl)pyrimidin-4-yl)-1H-pyrazol-3-yl)methanol] yielded an IC50 of 27.6 nM.

Take `CC1(C)[C@H]2CC[C@]1(c1nc(-c3nc(C(N)=O)no3)ncc1F)c1nnc(-c3c(F)cccc3F)cc12` [Example 283]: the IC50 was 11.6 nM. `CC1(C)[C@H]2CC[C@]1(c1cccc(-c3nnc(CO)[nH]3)n1)c1nnc(-c3c(F)cccc3F)cc12` [Example 150, (5-(6-((5R,8S)-3-(2,6-difluorophenyl)-9,9-dimethyl-5,6,7,8-tetrahydro-5,8-methanocinnolin-8-yl)pyridin-2-yl)-4H-1,2,4-triazol-3-yl)methanol] came in with an IC50 of 22.3 nM. As to `Cc1nnc(-c2ccnc([C@@]34CC[C@@H](c5cc(-c6c(F)cccc6F)nnc53)C4(C)C)c2)o1` [Example 66], the IC50 turned out to be 161 nM.

Turning to `Cc1cncnc1[C@@]12CC[C@@H](c3cc(-c4c(F)cccc4F)nnc31)C2(C)C` [Example 19], the IC50 turned out to be 20.3 nM.

`CC1(C)[C@@H]2CC[C@@]1(c1cccc(C(=O)NCCO)n1)c1nnc(-c3c(F)cccc3F)cc12` [Example 99, 6-((5S,8R)-3-(2,6-difluorophenyl)-9,9-dimethyl-5,6,7,8-tetrahydro-5,8-methanocinnolin-8-yl)-N-(2-hydroxyethyl)picolinamide] came in with an IC50 of 40.9 nM. On to `CC1(C)[C@H]2CC[C@]1(c1cncc(NC(=O)C3COC3)n1)c1nnc(-c3c(F)cccc3F)cc12` [Example 103, N-(6-((5R,8S)-3-(2,6-difluorophenyl)-9,9-dimethyl-5,6,7,8-tetrahydro-5,8-methanocinnolin-8-yl)pyrazin-2-yl)oxetane-3-carboxamide], for which the IC50 was 29.1 nM. Consider `CC(C)(O)c1cnc(-c2nccc([C@@]34CC[C@@H](c5cc(-c6c(F)cccc6F)nnc53)C4(C)C)n2)cn1` [Example 415], for which the IC50 is 22 nM. The compound `CC(C)(O)COc1cncc([C@@]23CC[C@@H](c4cc(-c5c(F)cccc5F)nnc42)C3(C)C)n1` [Example 316, 1-((6-((5R,8S)-3-(2,6-difluorophenyl)-9,9-dimethyl-5,6,7,8-tetrahydro-5,8-methanocinnolin-8-yl)pyrazin-2-yl)oxy)-2-methylpropan-2-ol] came in with an IC50 of 36.4 nM. The result for `CC1(C)[C@H]2CC[C@]1(c1cccc(-c3n[nH]c(=O)[nH]3)n1)c1nnc(-c3c(F)cccc3F)cc12` [Example 179, 3-(6-((5R,8S)-3-(2,6-difluorophenyl)-9,9-dimethyl-5,6,7,8-tetrahydro-5,8-methanocinnolin-8-yl)pyridin-2-yl)-1H-1,2,4-triazol-5(4H)-one] reads 15 nM; that for `CC1(C)[C@H]2CC[C@]1(c1cncc(-c3nnc[nH]3)n1)c1nnc(-c3c(F)cccc3F)cc12` [Example 104], 25.9 nM. The compound `CC(C)(O)Cc1n[nH]c(-c2cncc([C@@]34CC[C@@H](c5cc(-c6c(F)cccc6F)nnc53)C4(C)C)n2)n1` [Example 354, 1-(5-(6-((5R,8S)-3-(2,6-difluorophenyl)-9,9-dimethyl-5,6,7,8-tetrahydro-5,8-methanocinnolin-8-yl)pyrazin-2-yl)-1H-1,2,4-triazol-3-yl)-2-methylpropan-2-ol] yielded an IC50 of 20.7 nM. `COc1ccnc([C@@]23CC[C@@H](c4cc(-c5c(F)cccc5F)nnc42)C3(C)C)c1` [Example 26]: the IC50 amounted to 57.2 nM. With `C[C@H](CO)NC(=O)c1cncc([C@@]23CC[C@@H](c4cc(-c5c(F)cccc5F)nnc42)C3(C)C)n1` [Example 51, 6-((5R,8S)-3-(2,6-difluorophenyl)-9,9-dimethyl-5,6,7,8-tetrahydro-5,8-methanocinnolin-8-yl)-N-((R)-1-hydroxypropan-2-yl)pyrazine-2-carboxamide], the IC50 was 59 nM. In turn, `CC1(C)[C@H]2CC[C@]1(c1cc(N)ncc1Cl)c1nnc(-c3c(F)cccc3F)cc12` [Example 177, 5-chloro-4-((5R,8S)-3-(2,6-difluorophenyl)-9,9-dimethyl-5,6,7,8-tetrahydro-5,8-methanocinnolin-8-yl)pyridin-2-amine] had a half-inhibitory concentration (IC50) of 24.4 nM. `CC1(C)[C@H]2CC[C@]1(c1ccnc(-n3cnc(C#N)n3)n1)c1nnc(-c3c(F)cccc3F)cc12` [Example 220] gave an IC50 of 25.3 nM. As for `CC1(C)[C@H]2CC[C@]1(c1cncc(C(=O)NC3(CO)CC3)n1)c1nnc(-c3c(F)cccc3F)cc12` [Example 140, 6-((5R,8S)-3-(2,6-difluorophenyl)-9,9-dimethyl-5,6,7,8-tetrahydro-5,8-methanocinnolin-8-yl)-N-(1-(hydroxymethyl)cyclopropyl)pyrazine-2-carboxamide], the IC50 is 44.4 nM. In the case of `COC(=O)c1ncc(Br)c([C@@]23CC[C@@H](c4cc(-c5c(F)cccc5F)nnc42)C3(C)C)n1` [Example 187], the IC50 came out at 26.4 nM. As to `CC1(C)[C@H]2CC[C@]1(c1cccc(C#N)n1)c1nnc(-c3c(F)cccc3F)cc12` [Example 16, 6-((5R,8S)-3-(2,6-difluorophenyl)-9,9-dimethyl-5,6,7,8-tetrahydro-5,8-methanocinnolin-8-yl)picolinonitrile], the IC50 is 7.6 nM.

Take `CC1(C)[C@H]2CC[C@]1(c1cc(C(N)=O)ccn1)c1nnc(-c3c(F)cccc3F)cc12` [Example 69]: the IC50 is 26.4 nM.

Turning to `CC(C)(O)c1nc(-c2cncc([C@@]34CC[C@@H](c5cc(-c6c(F)cccc6F)nnc53)C4(C)C)n2)oc1Cl` [Example 432, 2-(5-chloro-2-(6-((5R,8S)-3-(2,6-difluorophenyl)-9,9-dimethyl-5,6,7,8-tetrahydro-5,8-methanocinnolin-8-yl)pyrazin-2-yl)oxazol-4-yl)propan-2-ol], the IC50 was 18 nM. `COC(=O)c1cncc([C@@]23CC[C@@H](c4cc(-c5c(F)cccc5F)nnc42)C3(C)C)n1` [Example 9, methyl 6-((5R,8S)-3-(2,6-difluorophenyl)-9,9-dimethyl-5,6,7,8-tetrahydro-5,8-methanocinnolin-8-yl)pyrazine-2-carboxylate] came in with an IC50 of 7.7 nM.

`CC1(C)[C@H]2CC[C@]1(c1ccnc(S(=O)(=O)NCCO)n1)c1nnc(-c3c(F)cccc3F)cc12` [Example 190] showed an IC50 of 13.6 nM. In turn, `Cc1ncn(-c2cncc([C@]34CC[C@H](c5cc(-c6c(F)cccc6F)nnc53)C4(C)C)n2)n1` [Example 375] gave an IC50 of 10.4 nM. For the compound `CC1(C)[C@H]2CC[C@]1(c1cccc(C(N)=O)n1)c1nnc(-c3c(F)cccc3F)cc12` [Example 45, 6-((5R,8S)-3-(2,6-difluorophenyl)-9,9-dimethyl-5,6,7,8-tetrahydro-5,8-methanocinnolin-8-yl)picolinamide], the IC50 amounted to 8.66 nM. In turn, `CC1(C)[C@H]2CC[C@]1(c1cncc(C(=O)NCc3n[nH]c(=O)[nH]3)n1)c1nnc(-c3c(F)cccc3F)cc12` [Example 141, 6-((5R,8S)-3-(2,6-difluorophenyl)-9,9-dimethyl-5,6,7,8-tetrahydro-5,8-methanocinnolin-8-yl)-N-((5-oxo-4,5-dihydro-1H-1,2,4-triazol-3-yl)methyl)pyrazine-2-carboxamide] returned an IC50 of 113 nM.

As for `CC1(C)[C@H]2CC[C@]1(c1ccnc(-n3cccn3)n1)c1nnc(-c3c(F)cccc3F)cc12` [Example 211], the concentration for half-maximal inhibition (IC50) stood at 8.8 nM.

The values above are taken from patent US10487068B2, “Pyridazine derivatives as RORc modulators” (Genentech, Inc., priority 2015, dated 2019).
